According to patent US9078928B2, “Conjugated molecules comprising a peptide derived from the CD4 receptor coupled to a polyanionic polypeptide for the treatment of AIDS” (Institut Pasteur, priority 2011, dated 2015):

Assays:
Format in all cases: cell-based
X4-tropic HIV-1-LAI = assay: Antiviral assay in PHA-P-activated PBMC, RT activity in supernatant at day 7 (Example 3); conditions: mean of triplicate; for ED70 VIH-1-LAI(X4) Average: effective dose to inhibit 70% of HIV-1 replication; for ED90 VIH-1-LAI(X4) Average: effective dose to inhibit 90% of HIV-1 replication
Protocol: The antiviral experiment have been performed as described in WO/2009/098147 and Nature Chemical Biology, 2009, 5(10), 743-748.
(§1) Briefly, the X4-tropic HIV-1-LAI (Barre-Sinoussi, Science 220, 868-71, 1983) or the R5-tropic HIV-1/Ba-L (Gartner et al, Science 233, 215-9, 1986) strains were amplified and titrated in vitro on Phytohemaglutinin-P (PHA-P)-activated peripheral blood mononuclear cells (PBMC). Tissue culture infectious doses were calculated using Kärber's formula (Kärber, Arch. Exp. Path. Pharmak. 162, 480-483, 1931). For the antiviral assay, PHA-P-activated PBMC were pre-treated for 30 minutes with six concentrations of each drug (1:5 dilutions between 0.5 μM and 160 pM) and infected with one hundred 50% tissue culture infectious doses (TCID50) of either the X4-tropic LAI or R5-tropic Ba-L strain. Drugs were maintained throughout the culture, and cell supernatants were collected at day 7 post-infection and stored at −20° C. Azidothymidine (AZT) was used in these experiments as an internal control. Viral replication was measured by quantifying reverse transcriptase (RT) activity in cell culture supernatants using the RetroSys HIV RT kit (Innovagen). In parallel, cytotoxicity of the samples was evaluated in uninfected PHA-P-activated PBMC by a methyltetrazolium salt (MTT) assay on day 7. Experiments were performed in triplicate and 50, 70 and 90% effective doses and cytotoxic doses were calculated using SoftMaxPro software.
PHA-P-activated PBMC were treated with each of the drug under investigation (1:5 dilutions between 0.5 μM and […]) and infected with 100 TCID50 of either HIV-1-LAI (X4 tropic) or /Ba-L (R5 tropic) strain. Molecules and viruses were maintained throughout the culture, and cell supernatants were collected at day 7 post-infection from which reverse transcriptase activity was quantified. Experiments were performed in triplicate and 50, 70 and 90% effective doses (ED), in nM (±S.D.) were calculated using SoftMaxPro software.

R5-tropic HIV-1/Ba-L = assay: as above; conditions: mean of triplicate; for ED70 VIH-1/Ba-L(R5) Average: effective dose to inhibit 70% of HIV-1 replication; for ED90 VIH-1/Ba-L(R5) Average: effective dose to inhibit 90% of HIV-1 replication
Protocol: as §1, with “For the antiviral assay, PHA-P-activated PBMC were pre-treated for 30 minutes with six concentrations of each drug (1:5 dilutions between 0.5 μM and 160 pM) and infected with one hundred 50% tissue culture infectious doses (TCID50) of either the X4-tropic LAI or R5-tropic Ba-L strain.” left out
Molecules and viruses were maintained throughout the culture, and cell supernatants were collected at day 7 post-infection from which reverse transcriptase activity was quantified. Experiments were performed in triplicate and 50, 70 and 90% effective doses (ED), in nM (±S.D.) were calculated using SoftMaxPro software.

clinical HIV-1 isolates = assay: Antiviral assay on the series of clinical HIV-1 isolates, summary in text (Example 4); conditions: primary strains of Table 5
Source text: The antiviral assay was extended to a series of more clinically relevant primary strains, including 92UG029, SF162, 92US723, 96USHIPS4, 92HT599 and 98IN017.
Phytohemagglutinin (PHA)-P-activated PBMCs were infected either with the reference lymphotropic HIV-1/LAI strain (Barre-Sinoussi, et al., 1983) or with the reference macrophage-tropic HIV-1/Ba-L strain (Gartner, et al., 1986). These viruses were amplified in vitro with PHA-P-activated blood mononuclear cells. Viral stocks (including clinical isolates) were titrated using PHA-P-activated PBMCs, and 50% tissue culture infectious doses (TCID50) were calculated using Kärber's formula (Kärber, 1931). Viruses (125 TCID50) were incubated for 30 min with five concentrations (1:5 dilutions between 500 nM and 320 pM) of each of the molecules to be tested and added to 150 000 PBMCs (m.o.i.˜0.001). […] Viral replication was measured by quantifying reverse transcriptase (RT) activity in the cell culture supernatants using the Lenti RT Activity Kit (Cavisi) and AZT was used as reference anti-HIV-1 molecule. In parallel, cytotoxicity was evaluated on day 7 in uninfected PHA-P-activated PBMC using a colorimetric methyl-tetrazolium salt (MTS/PMS) assay (Promega). Experiments were performed in triplicate and 50, 70 and 90% effective doses (ED) were calculated using SoftMaxPro software.

NH2-(CH2)3-CO-S-Asu-D-Asu-S-Asu-D-Asu-F-Asu-F-D-Asu-S [P3Asu]
ED70 VIH-1-LAI(X4) Average (X4-tropic HIV-1-LAI): >500 nM
ED90 VIH-1-LAI(X4) Average (X4-tropic HIV-1-LAI): >500 nM
ED70 VIH-1/Ba-L(R5) Average (R5-tropic HIV-1/Ba-L): >500 nM
ED90 VIH-1/Ba-L(R5) Average (R5-tropic HIV-1/Ba-L): >500 nM

NH2-(CH2)3-CO-S-pF-D-pF-S-pF-D-pF-S-pF-D-pF-S [P3pF]
ED70 VIH-1-LAI(X4) Average (X4-tropic HIV-1-LAI): >500 nM
ED90 VIH-1-LAI(X4) Average (X4-tropic HIV-1-LAI): >500 nM
ED70 VIH-1/Ba-L(R5) Average (R5-tropic HIV-1/Ba-L): >500 nM
ED90 VIH-1/Ba-L(R5) Average (R5-tropic HIV-1/Ba-L): >500 nM

NH2-(CH2)3-CO-S-YSO3-D-YSO3-S-YSO3-D-YSO3-S-YSO3-D-YS03-S (SXDXSXDXSXDXS; non-natural residues) [P3YSO3]
antiviral activity against clinical isolates (in words) (clinical HIV-1 isolates): only poorly active or inactive
